Data as given in PMC10286969, “Characterization of the biochemical activity and tumor-promoting role of the dual protein methyltransferase METL-13/METTL13 in Caenorhabditis elegans” (PLOS ONE, 2023).

Molecular target: T1, MT13-C (C-terminal MTase domain fragment of METL-13) (Caenorhabditis elegans, UniProt Q17539)
T1 construct: C-terminal methyltransferase fragment, residues 213-656, N-terminal His6 tag (pET28a), expressed in E. coli, Ni-NTA purified
T1 sequence (Q17539 213-656): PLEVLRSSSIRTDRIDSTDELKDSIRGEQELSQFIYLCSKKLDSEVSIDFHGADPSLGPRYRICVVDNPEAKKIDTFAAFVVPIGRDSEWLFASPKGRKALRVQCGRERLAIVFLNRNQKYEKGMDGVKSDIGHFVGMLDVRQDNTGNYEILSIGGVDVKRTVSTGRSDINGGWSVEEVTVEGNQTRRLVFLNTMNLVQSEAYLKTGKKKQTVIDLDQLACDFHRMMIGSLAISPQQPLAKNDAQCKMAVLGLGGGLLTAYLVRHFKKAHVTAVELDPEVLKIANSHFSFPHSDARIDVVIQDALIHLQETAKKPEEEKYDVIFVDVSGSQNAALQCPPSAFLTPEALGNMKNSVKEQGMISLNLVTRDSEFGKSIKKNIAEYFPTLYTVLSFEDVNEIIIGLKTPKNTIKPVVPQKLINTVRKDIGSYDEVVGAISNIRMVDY
Assay: in vitro methyltransferase assay, SDS-PAGE fluorography
Type: biochemical
Details: methyl donor; protein substrate recombinant human eEF1A1 with C-terminal His tag (N-terminal G2 methylation); labelled compound (tritium); pH 7.4, 100 mM NaCl, 10% glycerol, 30 °C, 1 h

With `C[S+](CC[C@H](N)C(=O)O)C[C@H]1O[C@@H](n2cnc3c(N)ncnc32)[C@H](O)[C@@H]1O` (stereo partly shown) [[^3H]-AdoMet] the “in vitro methyltransferase assay, SDS-PAGE fluorography” value was “C. elegans MT13-N or MT13-C as enzymes, human eEF1A1 as the substrate and [^3H]AdoMet”.
